In article PMC8218592 (Journal of medicinal chemistry, 2019):
One block for each compound: values may come before it.

Columns and labels:
ERAP1 [1] = biological target: T1, ERAP1 (Homo sapiens, UniProt Q9NZ08); assay: ERAP1 WK10; format: biochemical; conditions: Figure 3B
ERAP1 [2] = biological target: T1, ERAP1; assay: ERAP1 L-pNA hydrolysis mode of action kinetics; format: biochemical
IRAP = biological target: T2, IRAP (Mus musculus, UniProt Q8C129); assay: IRAP L-AMC hydrolysis assay; format: biochemical
T2 sequence (Q8C129 132-1025 limits assumed): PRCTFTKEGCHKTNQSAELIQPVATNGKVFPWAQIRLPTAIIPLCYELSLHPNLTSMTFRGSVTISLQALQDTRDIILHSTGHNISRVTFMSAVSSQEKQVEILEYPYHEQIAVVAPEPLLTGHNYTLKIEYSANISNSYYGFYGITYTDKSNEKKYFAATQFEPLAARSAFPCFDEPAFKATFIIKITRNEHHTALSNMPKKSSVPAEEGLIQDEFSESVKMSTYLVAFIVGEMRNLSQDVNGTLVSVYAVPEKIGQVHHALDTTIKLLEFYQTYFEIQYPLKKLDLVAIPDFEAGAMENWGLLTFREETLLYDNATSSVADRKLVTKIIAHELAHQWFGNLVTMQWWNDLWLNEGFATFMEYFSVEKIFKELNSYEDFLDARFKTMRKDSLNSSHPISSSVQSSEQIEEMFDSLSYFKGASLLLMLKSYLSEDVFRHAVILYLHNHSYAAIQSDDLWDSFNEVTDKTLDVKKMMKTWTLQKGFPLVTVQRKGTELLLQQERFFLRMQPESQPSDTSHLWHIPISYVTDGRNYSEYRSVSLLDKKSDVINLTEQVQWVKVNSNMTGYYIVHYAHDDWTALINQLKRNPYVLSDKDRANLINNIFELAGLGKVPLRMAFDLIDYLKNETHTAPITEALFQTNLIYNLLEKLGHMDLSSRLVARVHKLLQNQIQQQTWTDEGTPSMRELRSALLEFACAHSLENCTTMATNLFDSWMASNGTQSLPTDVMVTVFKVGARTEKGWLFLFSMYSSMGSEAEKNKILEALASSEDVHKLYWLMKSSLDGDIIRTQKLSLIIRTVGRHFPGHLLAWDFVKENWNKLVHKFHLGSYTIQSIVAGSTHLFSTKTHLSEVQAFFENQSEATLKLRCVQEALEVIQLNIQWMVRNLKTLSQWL

ERAP1 [3] = biological target: T1, ERAP1; assay: ERAP1 LF9 peptide hydrolysis coupled-enzyme assay, mode of action; format: biochemical; conditions: LF9 peptide substrate
ERAP1 K551A = assay: L-AMC activation assay with mutant ERAP1 K551A; format: biochemical, human
ERAP1 allele II = assay: L-AMC hydrolysis assay with ERAP1 allelic variant allele II; format: biochemical, human; conditions: disease-associated allele II (528K)
ERAP1 [4] = biological target: T1, ERAP1; assay: ERAP1 L-AMC hydrolysis assay; format: biochemical

T1 sequence (Q9NZ08 22-941): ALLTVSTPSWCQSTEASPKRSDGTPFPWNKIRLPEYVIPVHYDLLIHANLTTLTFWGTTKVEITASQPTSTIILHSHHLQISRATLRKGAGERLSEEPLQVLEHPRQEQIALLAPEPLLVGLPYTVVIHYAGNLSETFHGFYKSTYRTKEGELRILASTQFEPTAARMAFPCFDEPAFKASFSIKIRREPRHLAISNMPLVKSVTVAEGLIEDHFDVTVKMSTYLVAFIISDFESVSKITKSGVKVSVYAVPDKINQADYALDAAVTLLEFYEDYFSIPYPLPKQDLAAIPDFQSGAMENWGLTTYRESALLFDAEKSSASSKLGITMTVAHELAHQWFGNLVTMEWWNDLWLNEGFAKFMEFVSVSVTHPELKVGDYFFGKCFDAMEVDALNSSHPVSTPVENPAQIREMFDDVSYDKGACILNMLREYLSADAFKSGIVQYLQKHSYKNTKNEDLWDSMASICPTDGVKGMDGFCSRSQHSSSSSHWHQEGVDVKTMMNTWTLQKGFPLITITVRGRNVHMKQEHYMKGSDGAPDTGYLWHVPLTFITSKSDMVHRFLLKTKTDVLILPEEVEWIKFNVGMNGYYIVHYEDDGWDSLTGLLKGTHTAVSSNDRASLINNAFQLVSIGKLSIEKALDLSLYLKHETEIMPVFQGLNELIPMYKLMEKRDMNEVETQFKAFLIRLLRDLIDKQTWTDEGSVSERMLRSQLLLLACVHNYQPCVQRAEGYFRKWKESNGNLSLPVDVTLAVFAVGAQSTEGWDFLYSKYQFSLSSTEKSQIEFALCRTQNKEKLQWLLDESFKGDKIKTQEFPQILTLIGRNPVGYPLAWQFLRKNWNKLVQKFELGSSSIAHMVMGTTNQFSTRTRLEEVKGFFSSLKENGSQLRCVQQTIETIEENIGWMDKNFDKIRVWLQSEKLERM

Compound: N=C(NCCc1c[nH]c2ccccc12)NS(=O)(=O)c1cc(F)ccc1F [Compound 1, N-(N-(2-(1H-Indol-3-yl)ethyl)carbamimidoyl)-2,5-difluorobenzenesulfonamide]
effect on WK10 peptide hydrolysis (ERAP1 [1]): inhibited peptide hydrolysis in a dose-dependent manner
mode of inhibition (ERAP1 [2]; L-pNA substrate): competitive
change in potency for mutant ERAP1 (L-AMC inhibition) (ERAP1 T350A): small reduction in potency

Compound: CC(=O)N1CCN(C(=O)C2(NC(=O)Nc3ccc(C)cc3)CCCCC2)CC1 [Compound 2, 1-(1-(4-Acetylpiperazine-1-carbonyl)cyclohexyl)-3-(p-tolyl)urea]
IC50 (IRAP): > 200 µM

Compound: COc1ccc(C(=O)O)cc1S(=O)(=O)Nc1cc(C(F)(F)F)ccc1N1CCCCC1 [Compound 3, 4-Methoxy-3-(N-(2-(piperidin-1-yl)-5-(trifluoromethyl)phenyl)sulfamoyl)benzoic acid]
IC50 (IRAP): > 200 µM
effect on IRAP activity (IRAP; Figure 2C): no detectable effect
effect on WK10 peptide hydrolysis (ERAP1 [1]): inhibited peptide hydrolysis in a dose-dependent manner
increase of L-pNA hydrolysis activity (Vmax/Khalf) (ERAP1 [2]; over the concentration range tested): up to 1.8 fold
mode of inhibition (ERAP1 [3]): competitive
effect of mutation on L-AMC AC50 (ERAP1 K551A): substantial effect
L-AMC AC50 for ERAP1 allele II (ERAP1 allele II): sub-micromolar

Compound: CC(=O)N1CCN(C(=O)C2(NC(=O)Nc3ccc(Cl)cc3)CCCCC2)CC1 [Compound 16, 1-(1-(4-Acetylpiperazine-1-carbonyl)cyclohexyl)-3-(4-chlorophenyl)urea]
IC50 (IRAP): > 200 µM

Compound: COc1ccc(NC(=O)NC2(C(=O)N3CCN(C(C)=O)CC3)CCCCC2)cc1 [Compound 17, 1-(1-(4-Acetylpiperazine-1-carbonyl)cyclohexyl)-3-(4-methoxyphenyl)urea]
IC50 (IRAP): > 200 µM

Compound: CC(=O)N1CCN(C(=O)C2(NC(=O)Nc3ccc(F)cc3)CCCCC2)CC1 [Compound 18, 1-(1-(4-Acetylpiperazine-1-carbonyl)cyclohexyl)-3-(4-fluorophenyl)urea]
IC50 (IRAP): > 200 µM

Compound: CC(=O)N1CCN(C(=O)C2(NC(=O)Nc3ccccc3)CCCCC2)CC1 [Compound 19, 1-(1-(4-Acetylpiperazine-1-carbonyl)cyclohexyl)-3-phenylurea]
IC50 (IRAP): > 200 µM

Compound: Cc1ccc(NC(=O)NC2(C(=O)N3CCOCC3)CCCCC2)cc1 [Compound 20, 1-(1-(Morpholine-4-carbonyl)cyclohexyl)-3-(p-tolyl)urea]
activity in ERAP1 L-AMC hydrolysis assay (ERAP1 [4]): no detectable inhibitory activity
IC50 (IRAP): > 200 µM

Results, then the compound that gave them:

activity in ERAP1 L-AMC hydrolysis assay (ERAP1 [4]): no detectable inhibitory activity
IC50 (IRAP): > 200 µM
Compound: Cc1ccc(NC(=O)NC2(C(=O)N3CCN(c4ccccc4)CC3)CCCCC2)cc1 [Compound 21, 1-(1-(4-Phenylpiperazine-1-carbonyl)cyclohexyl)-3-(p-tolyl)urea]

IC50 (IRAP): > 200 µM
Compound: CC(=O)N1CCN(C(=O)C(C)(C)NC(=O)Nc2ccc(C)cc2)CC1 [Compound 22, 1-(1-(4-Acetylpiperazin-1-yl)-2-methyl-1-oxopropan-2-yl)-3-(p-tolyl)urea]

IC50 (IRAP): > 200 µM
Compound: CC(=O)N1CCN(C(=O)C2(NC(=O)Nc3ccc(C)cc3)CC2)CC1 [Compound 23, 1-(1-(4-Acetylpiperazine-1-carbonyl)cyclopropyl)-3-(p-tolyl)urea]
